IC50 data for 28 molecules are collected here from patent publication US9464082B2, “Aryl and arylalkyl substituted pyrazolyl and pyrimidinyl tricyclic enones as antioxidant inflammation modulators” (AbbVie Inc., priority 2014, dated 2016).

For this assay, the system named is IFNγ-Induced NO Production. In words: Nitric Oxide Suppression Assay (Suppression of IFNγ-Induced NO Production). Type of assay: cell-based. Conditions: RAW264.7; RAW 264.7 mouse macrophage cells; 2 hour pre-treatment with compound (3 μM to 0.3 nM, 10 point curve); 20 ng/mL interferon gamma, ~18 hour; Griess detection; n=2-3 in duplicates. The gist of the method:
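Mouse RAW 264.7 macrophages pre-treated 2 h at 37 °C with compound (3 μM to 0.3 nM, 10 points; DMSO ≤1%), then stimulated with 20 ng/mL interferon gamma for ~18 h. Supernatant nitrite measured by Griess reaction, absorbance 520–550 nm. IC50 from curve fit of signal normalised to IFNγ alone, mean n=2-3 in duplicate.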
As a reminder, the IC50 is the point on the concentration scale where inhibition reaches its midpoint. Regarding `C[C@@H]1C(=O)C(C#N)=C[C@]2(c3cccc(C(=O)O)c3)c3n[nH]cc3CC[C@@H]12` [Example 71, 3-[(5aS,6S,9aR)-8-cyano-6-methyl-7-oxo-2,4,5,5a,6,7-hexahydro-9aH-benzo[g]indazol-9a-yl]benzoic acid], the IC50 is 1470 nM.

On to `Cc1nc(-c2cn[nH]c2)c2c(n1)[C@@]1(c3ccccc3)C=C(C#N)C(=O)[C@@H](C)[C@@H]1CC2` [Example 34, (6aS,7S,10aR)-2,7-dimethyl-8-oxo-10a-phenyl-4-(1H-pyrazol-4-yl)-5,6,6a,7,8,10a-hexahydrobenzo[h]quinazoline-9-carbonitrile], for which the IC50 worked out at 2.86 nM.

Regarding `C[C@@H]1C(=O)C(C#N)=C[C@]2(c3ccccc3)c3nc(Nc4ccccc4)ncc3CC[C@@H]12` (racemic) [Example 9, rac-(6aS,7S,10aR)-2-anilino-7-methyl-8-oxo-10a-phenyl-5,6,6a,7,8,10a-hexahydrobenzo[h]quinazoline-9-carbonitrile], the IC50 is 5.99 nM.

As for `Cc1nc(-c2cccc(-c3ccc(C(N)=O)cc3)c2)c2c(n1)[C@@]1(c3ccccc3)C=C(C#N)C(=O)[C@@H](C)[C@@H]1CC2` [Example 135, 3′-[(6aS,7S,10aR)-9-cyano-2,7-dimethyl-8-oxo-10a-phenyl-5,6,6a,7,8,10a-hexahydrobenzo[h]quinazolin-4-yl]biphenyl-4-carboxamide], the half-maximal inhibitory concentration (IC50) stood at 8.22 nM.

With `C[C@@H]1C(=O)C(C#N)=C[C@]2(c3ccccc3)c3nn(C)c(-c4cccc(-c5ccc(N)cc5)c4)c3CC[C@@H]12` [Example 149, (5aS,6S,9aR)-3-(4′-aminobiphenyl-3-yl)-2,6-dimethyl-7-oxo-9a-phenyl-4,5,5a,6,7,9a-hexahydro-2H-benzo[g]indazole-8-carbonitrile], the IC50 amounted to 7.32 nM.

`COc1ncc(-c2cccc(-c3c4c(nn3C)[C@@]3(c5ccccc5)C=C(C#N)C(=O)[C@@H](C)[C@@H]3CC4)c2)cn1` [Example 153, (5aS,6S,9aR)-3-[3-(2-methoxypyrimidin-5-yl)phenyl]-2,6-dimethyl-7-oxo-9a-phenyl-4,5,5a,6,7,9a-hexahydro-2H-benzo[g]indazole-8-carbonitrile]: the IC50 worked out at 6.46 nM.

On to `C[C@@H]1C(=O)C(C#N)=C[C@]2(c3ccccc3)c3nn(C)c(-c4cccnc4)c3CC[C@@H]12` [Example 178, (5aS,6S,9aR)-2,6-dimethyl-7-oxo-9a-phenyl-3-(pyridin-3-yl)-4,5,5a,6,7,9a-hexahydro-2H-benzo[g]indazole-8-carbonitrile], for which the IC50 was found to be 5.4 nM.

In the case of `Cc1nc(-c2ccc(-c3ccn[nH]3)cc2)c2c(n1)[C@@]1(c3ccc(F)cc3)C=C(C#N)C(=O)[C@@H](C)[C@@H]1CC2` [Example 83, (6aS,7S,10aR)-10a-(4-fluorophenyl)-2,7-dimethyl-8-oxo-4-[4-(1H-pyrazol-5-yl)phenyl]-5,6,6a,7,8,10a-hexahydrobenzo[h]quinazoline-9-carbonitrile], the IC50 is 16.4 nM.

With `CCNc1ncc2c(n1)[C@@]1(c3ccccc3)C=C(C#N)C(=O)[C@@H](C)[C@@H]1CC2` [Example 12, (6aS,7S,10aR)-2-(ethylamino)-7-methyl-8-oxo-10a-phenyl-5,6,6a,7,8,10a-hexahydrobenzo[h]quinazoline-9-carbonitrile], the IC50 was 24.1 nM.

For the molecule `Cc1nc(-c2cccc(CCO)c2)c2c(n1)[C@@]1(c3ccccc3)C=C(C#N)C(=O)[C@@H](C)[C@@H]1CC2` [Example 47, (6aS,7S,10aR)-4-[3-(2-hydroxyethyl)phenyl]-2,7-dimethyl-8-oxo-10a-phenyl-5,6,6a,7,8,10a-hexahydrobenzo[h]quinazoline-9-carbonitrile], the IC50 was determined as 18.8 nM.

For `COC(=O)c1cccc([C@]23C=C(C#N)C(=O)[C@@H](C)[C@@H]2CCc2cnc(-c4ccccc4)nc23)c1` [Example 99, methyl 3-[(6aS,7S,10aR)-9-cyano-7-methyl-8-oxo-2-phenyl-6,6a,7,8-tetrahydrobenzo[h]quinazolin-10a(5H)-yl]benzoate], the IC50 worked out at 23.4 nM.

Turning to `CCN(CC)c1ncc2c(n1)[C@@]1(c3ccccc3)C=C(C#N)C(=O)[C@@H](C)[C@@H]1CC2` [Example 30, (6aS,7S,10aR)-2-(diethylamino)-7-methyl-8-oxo-10a-phenyl-5,6,6a,7,8,10a-hexahydrobenzo[h]quinazoline-9-carbonitrile], the IC50 turned out to be 56.8 nM.

On to `C[C@@H]1C(=O)C(C#N)=C[C@]2(c3ccccc3)c3nc(-c4ccc(C(=O)N(C)C)cc4)ncc3CC[C@@H]12` [Example 138, 4-[(6aS,7S,10aR)-9-cyano-7-methyl-8-oxo-10a-phenyl-5,6,6a,7,8,10a-hexahydrobenzo[h]quinazolin-2-yl]-N,N-dimethylbenzamide], for which the IC50 came to 5.26 nM.

With `CC(=O)OCCCc1cccc(-c2nc(C)nc3c2CC[C@H]2[C@H](C)C(=O)C(C#N)=C[C@]32c2ccccc2)c1` [Example 125, 3-{3-[(6aS,7S,10aR)-9-cyano-2,7-dimethyl-8-oxo-10a-phenyl-5,6,6a,7,8,10a-hexahydrobenzo[h]quinazolin-4-yl]phenyl}propyl acetate], the IC50 was determined as 4.69 nM.

As to `C[C@@H]1C(=O)C(C#N)=C[C@]2(c3ccc(C(=O)N4CCCC4)cc3)c3ncncc3CC[C@@H]12` [Example 73, (6aS,7S,10aR)-7-methyl-8-oxo-10a-[4-(pyrrolidin-1-ylcarbonyl)phenyl]-5,6,6a,7,8,10a-hexahydrobenzo[h]quinazoline-9-carbonitrile], the IC50 stood at 152 nM.

Take `CCCNC(=O)c1cccc([C@]23C=C(C#N)C(=O)[C@@H](C)[C@@H]2CCc2cncnc23)c1` [Example 96, 3-[(6aS,7S,10aR)-9-cyano-7-methyl-8-oxo-6,6a,7,8-tetrahydrobenzo[h]quinazolin-10a(5H)-yl]-N-propylbenzamide]: the IC50 turned out to be 78.2 nM.

Turning to `Cc1nc(O)c2c(n1)[C@@]1(c3ccccc3)C=C(C#N)C(=O)[C@@H](C)[C@@H]1CC2` [Example 20, (6aS,7S,10aR)-4-hydroxy-2,7-dimethyl-8-oxo-10a-phenyl-5,6,6a,7,8,10a-hexahydrobenzo[h]quinazoline-9-carbonitrile], the IC50 is 45 nM.

Turning to `C[C@@H]1C(=O)C(C#N)=C[C@]2(c3ccccc3)c3nn(C(=O)c4cscn4)cc3CC[C@@H]12` [Example 40, (5aS,6S,9aR)-6-methyl-7-oxo-9a-phenyl-2-(1,3-thiazol-4-ylcarbonyl)-4,5,5a,6,7,9a-hexahydro-2H-benzo[g]indazole-8-carbonitrile], the IC50 worked out at 45.4 nM.

As for `C[C@@H]1C(=O)C(C#N)=C[C@]2(c3ccccc3)c3nn(C(=O)CO)cc3CC[C@@H]12` [Example 42, (5aS,6S,9aR)-2-glycoloyl-6-methyl-7-oxo-9a-phenyl-4,5,5a,6,7,9a-hexahydro-2H-benzo[g]indazole-8-carbonitrile], the IC50 turned out to be 34.2 nM.

As for `Cc1nc(-c2ccc(-c3cncn3C)cc2)c2c(n1)[C@@]1(c3ccccc3)C=C(C#N)C(=O)[C@@H](C)[C@@H]1CC2` [Example 139, (6aS,7S,10aR)-2,7-dimethyl-4-[4-(1-methyl-1H-imidazol-5-yl)phenyl]-8-oxo-10a-phenyl-5,6,6a,7,8,10a-hexahydrobenzo[h]quinazoline-9-carbonitrile], the IC50 came to 19 nM.

On to `C[C@@H]1C(=O)C(C#N)=C[C@]2(c3ccccc3)c3nn(C(=O)c4ccccc4)cc3CC[C@@H]12` [Example 38, (5aS,6S,9aR)-2-benzoyl-6-methyl-7-oxo-9a-phenyl-4,5,5a,6,7,9a-hexahydro-2H-benzo[g]indazole-8-carbonitrile], for which the IC50 amounted to 75.2 nM.

Take `C[C@@H]1C(=O)C(C#N)=C[C@]2(c3ccccc3)c3nn(C)c(-c4cccc(-c5ccc(O)cc5)c4)c3CC[C@@H]12` [Example 170, (5aS,6S,9aR)-3-(4′-hydroxybiphenyl-3-yl)-2,6-dimethyl-7-oxo-9a-phenyl-4,5,5a,6,7,9a-hexahydro-2H-benzo[g]indazole-8-carbonitrile]: the IC50 was 6.96 nM.

For `Cc1nc(-c2cccc(-c3ccc(N)cc3)c2)c2c(n1)[C@@]1(c3ccccc3)C=C(C#N)C(=O)[C@@H](C)[C@@H]1CC2` [Example 118, (6aS,7S,10aR)-4-(4′-aminobiphenyl-3-yl)-2,7-dimethyl-8-oxo-10a-phenyl-5,6,6a,7,8,10a-hexahydrobenzo[h]quinazoline-9-carbonitrile], the IC50 was 4.62 nM.

Consider `Cc1nc(-c2cncnc2)c2c(n1)[C@@]1(c3cccc(F)c3)C=C(C#N)C(=O)[C@@H](C)[C@@H]1CC2` [Example 69, (6aS,7S,10aR)-10a-(3-fluorophenyl)-2,7-dimethyl-8-oxo-4-(pyrimidin-5-yl)-5,6,6a,7,8,10a-hexahydrobenzo[h]quinazoline-9-carbonitrile], for which the IC50 was found to be 35.8 nM.

With `COc1ccc([C@]23C=C(C#N)C(=O)[C@@H](C)[C@@H]2CCc2c(-c4ccc(-c5[nH]ncc5Br)cc4)nc(C)nc23)cc1` [Example 79, (6aS,7S,10aR)-4-[4-(4-bromo-1H-pyrazol-5-yl)phenyl]-10a-(4-methoxyphenyl)-2,7-dimethyl-8-oxo-5,6,6a,7,8,10a-hexahydrobenzo[h]quinazoline-9-carbonitrile], the IC50 turned out to be 45.7 nM.

As to `C[C@@H]1C(=O)C(C#N)=C[C@]2(c3ccccc3)c3nn(C)c(-c4ccccc4)c3CC[C@@H]12` (racemic) [Example 2, rac-(5aS,6S,9aR)-2,6-dimethyl-7-oxo-3,9a-diphenyl-4,5,5a,6,7,9a-hexahydro-2H-benzo[g]indazole-8-carbonitrile], the IC50 worked out at 16.9 nM.

With `C[C@@H]1C(=O)C(C#N)=C[C@]2(c3ccccc3)c3ncncc3CC[C@@H]12` [Example 1, (6aS,7S,10aR)-7-methyl-8-oxo-10a-phenyl-5,6,6a,7,8,10a-hexahydrobenzo[h]quinazoline-9-carbonitrile], the IC50 came to 5.35 nM.

In the case of `C[C@@H]1C(=O)C(C#N)=C[C@]2(c3ccccc3)c3[nH]nc(-c4ccccc4)c3CC[C@@H]12` (racemic) [Example 6, rac-(5aS,6S,9aR)-6-methyl-7-oxo-3,9a-diphenyl-4,5,5a,6,7,9a-hexahydro-1H-benzo[g]indazole-8-carbonitrile], the IC50 came out at 37.5 nM.
